The text below walks through data of ChEMBL document CHEMBL3392967, “Phosphatidylinositol 3-Kinase (PI3K) and phosphatidylinositol 3-kinase-related kinase (PIKK) inhibitors: importance of the morpholine ring” (J Med Chem, 2015).

Series [1] concerns the target T1, DNA-dependent protein kinase catalytic subunit (Homo sapiens, UniProt P78527). The experiment in a line: Inhibition of DNA-PK (unknown origin).
Series [2] addresses Serine/threonine-protein kinase mTOR (Homo sapiens, UniProt P42345). The experiment in a line: Inhibition of mTOR (unknown origin).
Series [3] has as its target T1, DNA-dependent protein kinase catalytic subunit. As to the kind of experiment: Inhibition of DNA-PK purified from HeLa nuclear extracts assessed as EPPLSQEAFADLWKKR peptide substrate phosphorylation.
Series [4] is described as follows: Inhibition of rapamycin-insensitive mTORC2 (unknown origin). Further details: species or system Homo sapiens.
Series [5] addresses Serine/threonine-protein kinase mTOR (Rattus norvegicus, UniProt P42346). The experiment in a line: Inhibition of rat derived mTOR using [gamma32P]ATP.
Series [6] concerns the target T2, Phosphatidylinositol 4,5-bisphosphate 3-kinase catalytic subunit delta isoform (Homo sapiens, UniProt O00329).
T2 sequence (O00329 whole entry): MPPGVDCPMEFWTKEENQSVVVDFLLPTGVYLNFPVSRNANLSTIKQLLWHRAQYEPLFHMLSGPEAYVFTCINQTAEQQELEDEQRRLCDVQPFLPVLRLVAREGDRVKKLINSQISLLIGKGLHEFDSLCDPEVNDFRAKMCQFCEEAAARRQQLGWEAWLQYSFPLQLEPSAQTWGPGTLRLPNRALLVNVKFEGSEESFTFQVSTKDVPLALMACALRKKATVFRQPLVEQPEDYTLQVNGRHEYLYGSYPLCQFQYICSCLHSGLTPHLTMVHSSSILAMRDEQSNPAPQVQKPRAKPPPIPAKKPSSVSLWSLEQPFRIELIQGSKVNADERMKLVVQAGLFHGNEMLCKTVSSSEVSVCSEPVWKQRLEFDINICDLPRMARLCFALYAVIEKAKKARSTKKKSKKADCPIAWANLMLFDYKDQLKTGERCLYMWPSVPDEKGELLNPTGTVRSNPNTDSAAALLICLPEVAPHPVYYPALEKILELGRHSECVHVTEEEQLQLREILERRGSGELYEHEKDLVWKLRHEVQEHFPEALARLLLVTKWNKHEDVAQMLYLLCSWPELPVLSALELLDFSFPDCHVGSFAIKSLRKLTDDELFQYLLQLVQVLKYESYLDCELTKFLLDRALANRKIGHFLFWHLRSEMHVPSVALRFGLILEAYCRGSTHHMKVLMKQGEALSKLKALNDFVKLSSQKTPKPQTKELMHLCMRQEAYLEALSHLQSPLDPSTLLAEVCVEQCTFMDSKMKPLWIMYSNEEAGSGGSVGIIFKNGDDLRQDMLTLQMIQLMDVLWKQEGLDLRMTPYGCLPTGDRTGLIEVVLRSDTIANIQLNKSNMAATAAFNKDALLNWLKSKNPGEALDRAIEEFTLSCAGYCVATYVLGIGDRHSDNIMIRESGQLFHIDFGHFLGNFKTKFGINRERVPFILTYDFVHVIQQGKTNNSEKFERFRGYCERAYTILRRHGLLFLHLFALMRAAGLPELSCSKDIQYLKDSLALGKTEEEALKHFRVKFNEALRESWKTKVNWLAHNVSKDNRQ

Series [7] is described as follows: Half life in mouse plasma at 25 mg/kg single dose. Format: ADME, organism-based. Set-up: dose 25 mg/kg.
A short description of series [8]: Half life in BALB/C mouse. The note with it: in vivo. Format: ADME, organism-based.
The nature of series [9]: Oral bioavailability in BALB/C mouse. Format: ADME, organism-based. Particulars: in vivo.
The target of series [10] is Phosphatidylinositol 4,5-bisphosphate 3-kinase catalytic subunit alpha isoform (Homo sapiens, UniProt P42336).
For another series, the system named is MDA-MB-361. As to the kind of experiment: cells. Particulars: Homo sapiens.
Series [11] is described as follows: Oral bioavailability in mouse. Format: ADME, organism-based. Particulars: in vivo.

“And” between values parts separate entries of the source, which are not always exact repeats. Identical values can stand only once.

T1 sequence (P78527 whole entry): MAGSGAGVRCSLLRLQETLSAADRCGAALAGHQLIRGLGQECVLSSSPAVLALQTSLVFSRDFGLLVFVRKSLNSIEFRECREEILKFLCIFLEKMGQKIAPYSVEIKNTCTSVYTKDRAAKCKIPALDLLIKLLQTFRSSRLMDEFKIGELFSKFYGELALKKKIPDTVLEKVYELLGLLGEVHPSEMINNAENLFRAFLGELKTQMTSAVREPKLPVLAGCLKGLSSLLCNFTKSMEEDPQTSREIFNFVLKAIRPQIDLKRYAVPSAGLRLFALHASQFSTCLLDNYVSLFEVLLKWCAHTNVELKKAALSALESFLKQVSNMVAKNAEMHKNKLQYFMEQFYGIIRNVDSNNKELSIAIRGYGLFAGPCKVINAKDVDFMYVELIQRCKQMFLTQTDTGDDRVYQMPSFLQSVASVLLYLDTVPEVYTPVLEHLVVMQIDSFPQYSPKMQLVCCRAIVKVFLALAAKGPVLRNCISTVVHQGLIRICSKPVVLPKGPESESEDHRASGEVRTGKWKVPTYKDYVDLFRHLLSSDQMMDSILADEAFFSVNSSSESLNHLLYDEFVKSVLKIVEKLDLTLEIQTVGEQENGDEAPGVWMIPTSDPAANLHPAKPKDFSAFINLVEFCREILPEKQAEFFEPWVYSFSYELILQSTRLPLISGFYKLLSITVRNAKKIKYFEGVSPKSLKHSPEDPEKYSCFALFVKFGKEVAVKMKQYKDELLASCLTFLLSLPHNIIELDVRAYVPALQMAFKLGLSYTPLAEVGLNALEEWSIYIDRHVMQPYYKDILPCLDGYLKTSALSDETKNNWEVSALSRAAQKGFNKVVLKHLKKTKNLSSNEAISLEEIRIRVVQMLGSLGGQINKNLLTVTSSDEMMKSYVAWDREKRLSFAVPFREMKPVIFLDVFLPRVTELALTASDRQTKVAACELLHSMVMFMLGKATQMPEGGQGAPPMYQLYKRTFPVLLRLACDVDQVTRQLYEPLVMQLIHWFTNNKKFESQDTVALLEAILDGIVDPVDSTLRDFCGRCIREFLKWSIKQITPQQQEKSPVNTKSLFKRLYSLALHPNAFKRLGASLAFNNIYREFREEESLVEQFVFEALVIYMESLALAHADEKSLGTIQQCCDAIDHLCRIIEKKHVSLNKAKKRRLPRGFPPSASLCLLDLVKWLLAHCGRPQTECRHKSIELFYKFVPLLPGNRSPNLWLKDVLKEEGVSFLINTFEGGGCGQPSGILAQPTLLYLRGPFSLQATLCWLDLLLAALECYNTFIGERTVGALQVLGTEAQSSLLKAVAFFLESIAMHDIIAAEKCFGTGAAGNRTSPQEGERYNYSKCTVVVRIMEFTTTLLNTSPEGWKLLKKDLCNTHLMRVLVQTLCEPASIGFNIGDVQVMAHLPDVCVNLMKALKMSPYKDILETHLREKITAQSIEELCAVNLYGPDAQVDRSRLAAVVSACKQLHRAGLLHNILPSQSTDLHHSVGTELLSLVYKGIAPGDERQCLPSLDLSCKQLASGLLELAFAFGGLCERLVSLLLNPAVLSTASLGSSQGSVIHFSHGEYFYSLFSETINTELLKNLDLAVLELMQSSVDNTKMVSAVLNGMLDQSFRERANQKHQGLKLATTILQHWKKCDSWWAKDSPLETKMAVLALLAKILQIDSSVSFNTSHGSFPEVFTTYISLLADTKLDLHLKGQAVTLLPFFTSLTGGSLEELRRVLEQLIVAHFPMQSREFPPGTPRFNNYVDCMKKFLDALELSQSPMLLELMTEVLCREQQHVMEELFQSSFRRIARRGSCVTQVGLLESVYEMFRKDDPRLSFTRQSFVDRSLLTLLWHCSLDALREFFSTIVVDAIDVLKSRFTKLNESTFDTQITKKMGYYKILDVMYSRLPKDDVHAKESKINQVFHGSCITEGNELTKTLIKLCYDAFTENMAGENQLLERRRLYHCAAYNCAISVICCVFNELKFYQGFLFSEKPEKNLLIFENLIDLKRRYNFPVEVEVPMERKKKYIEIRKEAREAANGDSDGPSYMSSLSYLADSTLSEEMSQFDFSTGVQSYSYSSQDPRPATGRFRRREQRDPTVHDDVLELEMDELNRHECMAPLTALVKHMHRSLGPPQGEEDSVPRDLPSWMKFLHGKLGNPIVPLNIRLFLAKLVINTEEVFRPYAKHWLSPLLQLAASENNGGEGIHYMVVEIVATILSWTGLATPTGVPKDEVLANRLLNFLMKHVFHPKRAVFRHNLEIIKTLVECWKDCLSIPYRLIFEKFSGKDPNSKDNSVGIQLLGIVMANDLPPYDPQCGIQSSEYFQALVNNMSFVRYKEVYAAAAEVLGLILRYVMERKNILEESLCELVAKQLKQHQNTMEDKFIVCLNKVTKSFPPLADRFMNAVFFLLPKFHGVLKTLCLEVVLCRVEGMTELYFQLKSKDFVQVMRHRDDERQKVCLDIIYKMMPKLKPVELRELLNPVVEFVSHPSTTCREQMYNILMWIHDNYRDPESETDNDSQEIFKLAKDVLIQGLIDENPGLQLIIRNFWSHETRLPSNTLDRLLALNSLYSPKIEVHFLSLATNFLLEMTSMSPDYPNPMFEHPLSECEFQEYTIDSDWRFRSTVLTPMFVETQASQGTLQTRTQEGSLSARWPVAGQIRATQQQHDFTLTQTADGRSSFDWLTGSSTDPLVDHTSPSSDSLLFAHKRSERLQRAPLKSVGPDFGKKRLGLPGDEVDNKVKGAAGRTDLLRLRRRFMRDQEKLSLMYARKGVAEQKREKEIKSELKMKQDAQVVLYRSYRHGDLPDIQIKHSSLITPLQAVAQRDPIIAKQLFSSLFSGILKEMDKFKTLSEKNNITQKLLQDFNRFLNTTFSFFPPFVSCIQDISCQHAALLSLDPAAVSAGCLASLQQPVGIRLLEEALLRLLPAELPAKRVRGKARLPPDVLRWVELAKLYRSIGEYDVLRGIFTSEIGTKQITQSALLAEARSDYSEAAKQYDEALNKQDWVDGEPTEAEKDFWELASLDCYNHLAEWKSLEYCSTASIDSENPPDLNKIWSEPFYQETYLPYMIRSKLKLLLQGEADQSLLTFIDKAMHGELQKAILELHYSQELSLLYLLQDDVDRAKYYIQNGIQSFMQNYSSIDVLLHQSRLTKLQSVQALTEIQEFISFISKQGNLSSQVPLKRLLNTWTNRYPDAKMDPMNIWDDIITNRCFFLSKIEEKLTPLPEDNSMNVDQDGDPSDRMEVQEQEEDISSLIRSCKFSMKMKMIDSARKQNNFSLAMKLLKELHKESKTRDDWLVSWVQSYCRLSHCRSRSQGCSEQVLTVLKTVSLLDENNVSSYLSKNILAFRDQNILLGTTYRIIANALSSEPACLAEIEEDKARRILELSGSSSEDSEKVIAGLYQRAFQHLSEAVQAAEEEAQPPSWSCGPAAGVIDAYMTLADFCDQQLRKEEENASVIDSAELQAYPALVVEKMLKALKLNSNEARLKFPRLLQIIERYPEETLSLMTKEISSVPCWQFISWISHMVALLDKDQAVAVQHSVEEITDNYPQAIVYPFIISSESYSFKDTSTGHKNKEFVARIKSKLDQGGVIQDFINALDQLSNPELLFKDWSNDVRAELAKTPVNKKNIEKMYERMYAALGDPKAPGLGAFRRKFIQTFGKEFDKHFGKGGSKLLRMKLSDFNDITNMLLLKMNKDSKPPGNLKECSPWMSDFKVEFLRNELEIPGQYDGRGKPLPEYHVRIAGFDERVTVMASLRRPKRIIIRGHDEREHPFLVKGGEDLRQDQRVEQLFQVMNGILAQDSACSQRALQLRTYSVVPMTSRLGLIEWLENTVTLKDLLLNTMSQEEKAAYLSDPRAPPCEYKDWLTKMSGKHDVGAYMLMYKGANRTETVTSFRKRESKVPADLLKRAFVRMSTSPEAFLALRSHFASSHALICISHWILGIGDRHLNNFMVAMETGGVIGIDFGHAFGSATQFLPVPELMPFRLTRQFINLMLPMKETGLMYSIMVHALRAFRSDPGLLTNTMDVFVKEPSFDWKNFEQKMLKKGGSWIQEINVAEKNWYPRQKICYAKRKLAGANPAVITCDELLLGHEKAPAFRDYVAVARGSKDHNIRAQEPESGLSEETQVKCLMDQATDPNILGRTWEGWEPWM
Chain of Phosphatidylinositol 4,5-bisphosphate 3-kinase catalytic subunit alpha isoform (P42336 whole entry, canonical isoform): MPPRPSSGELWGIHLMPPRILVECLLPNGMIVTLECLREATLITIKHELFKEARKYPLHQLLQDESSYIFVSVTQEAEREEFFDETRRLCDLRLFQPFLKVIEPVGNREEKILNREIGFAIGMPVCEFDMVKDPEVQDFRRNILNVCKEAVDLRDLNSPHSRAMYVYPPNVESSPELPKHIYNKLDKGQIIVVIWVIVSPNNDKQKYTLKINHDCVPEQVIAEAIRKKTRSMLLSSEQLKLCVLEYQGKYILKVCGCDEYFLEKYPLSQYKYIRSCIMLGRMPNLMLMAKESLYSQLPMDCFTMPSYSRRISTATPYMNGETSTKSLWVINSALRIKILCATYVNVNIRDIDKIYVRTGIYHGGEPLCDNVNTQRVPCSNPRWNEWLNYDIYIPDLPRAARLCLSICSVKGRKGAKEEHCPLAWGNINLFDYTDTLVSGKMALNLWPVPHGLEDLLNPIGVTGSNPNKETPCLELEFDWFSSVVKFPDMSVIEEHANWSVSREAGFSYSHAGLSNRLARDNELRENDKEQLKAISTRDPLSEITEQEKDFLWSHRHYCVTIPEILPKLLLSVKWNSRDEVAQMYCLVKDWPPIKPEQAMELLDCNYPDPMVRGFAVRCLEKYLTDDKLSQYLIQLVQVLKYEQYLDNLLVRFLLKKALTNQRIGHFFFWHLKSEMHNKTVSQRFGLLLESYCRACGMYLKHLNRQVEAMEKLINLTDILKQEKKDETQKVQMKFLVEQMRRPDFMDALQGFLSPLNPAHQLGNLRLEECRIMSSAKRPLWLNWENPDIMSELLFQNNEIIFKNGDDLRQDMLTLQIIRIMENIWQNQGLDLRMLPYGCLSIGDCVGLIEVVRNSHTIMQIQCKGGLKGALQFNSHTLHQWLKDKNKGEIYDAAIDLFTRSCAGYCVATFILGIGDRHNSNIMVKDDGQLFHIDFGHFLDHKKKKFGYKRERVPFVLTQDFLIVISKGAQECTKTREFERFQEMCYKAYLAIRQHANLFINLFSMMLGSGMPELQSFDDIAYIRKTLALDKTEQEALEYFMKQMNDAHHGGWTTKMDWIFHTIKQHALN

The compound `O=c1cc(N2CCOCC2)nc2c(-c3cccc4c3sc3ccccc34)cccn12` had an IC50 in series [1] of 13 nM.
The compound `CNC(=O)Nc1ccc(-c2nc(N3CCOCC3)nc3c2cnn3C2CCOCC2)cc1` displayed an IC50 in series [2] of 23 nM.
`Cc1ccc2c(=O)cc(N3CCOCC3)oc2c1-c1cccc2c1sc1ccccc12`: the IC50 in [1] was 5 nM and 14 nM.
As to `COc1ccc2oc(=O)cc(N3CCOCC3)c2c1`, in series [1], the IC50 was 1200 nM.
Turning to `O=C(c1ccc(O)cc1)c1ccc(N2CCOCC2)cc1O`, in series [3], the IC50 came to 35 nM.
In turn, `Oc1cccc(-c2nc(N3CCOCC3)c3oc4ncccc4c3n2)c1` [PI-103] came in with an IC50 in [4] of 83 nM.
As for `O=c1cc(N2CCOCC2)oc2c(-c3ccccc3)cccc12` [LY-294002], the IC50 in series [5] was determined as 2500 nM; in series [6] it was 1600 nM.
Compound `CN(C)C1CCN(C(=O)c2ccc(NC(=O)Nc3ccc(-c4nc(N5CCOCC5)nc(N5CCOCC5)n4)cc3)cc2)CC1` [GEDATOLISIB] showed a half-life in series [7] of 3.5 h.
Take `O=c1cc(-c2ccccc2)oc2cc(N3CCOCC3)cc(O)c12`: the IC50 in [3] stood at 34 nM.
Regarding `O=c1cc(N2CCOCC2)oc2c(-c3cccc4c3oc3ccccc34)cccc12`, the IC50 in series [1] came out at 41 nM.
With `Cc1nc2c(-c3cnc(N)nc3)nc(N3CCOCC3)nc2n1C(C)C` [VS-5584], in series [8], the half-life was 10 h. The compound further showed a bioavailability in [9] of 100%.
In [10], `Oc1ccc2nc(-c3ccccc3)nc(N3CCOCC3)c2c1` showed a half-inhibitory concentration (IC50) of 1300 nM.
Turning to `CCn1nnc2c(N3CCOCC3)nc(-c3ccc(NC(=O)Nc4ccc(C(=O)N5CCN(C)CC5)cc4)cc3)nc21`, the IC50 with MDA-MB-361 is 10 nM; in series [2], 3 nM. This compound also returned a bioavailability in series [11] of 88.6%.
On to `Cc1cc(C(C)Nc2ccccc2)c2nc(N3CCOCC3)cc(=O)n2c1` (stereo not drawn), for which the IC50 in [10] was more than 1000 nM.
